According to article PMC11144398, “Crizotinib inhibits the metabolism of tramadol by non-competitive suppressing the activities of CYP2D1 and CYP3A2” (PeerJ, 2024):

Legend:
[1] = Pharmacokinetics of tramadol and O-desmethyl tramadol in SD rats with or without crizotinib; conditions: single dose of crizotinib 45 mg/kg, tramadol 20 mg/kg
Description: Ultra-performance liquid chromatography-tandem mass spectrometry (UPLC-MS/MS) was utilized to measure the concentration of both tramadol and O-desmethyl tramadol. Separation was achieved using a Waters Acquity UPLC BEH C18 column, with dimensions of 2.1 mm × 50 mm and 1.7-µm particle size (Waters Corp., Milford, MA, USA), and quantitation was completed using a Waters XEVO TQD triple quadruple mass spectrometer. The mobile phase was composed of 0.1% formic acid (A) and ACN (B), and the gradient elution was carried out with a flow rate of 0.4 mL/min, following the procedure: 90–10% A (0–1.4 min), 10–90% A (1.4–1.5 min), and 90% A (1.5–2.0 min). Positive mode was used to detect the analytes with the following transitions: m/z 264.2 →58.0, m/z 250.2 →58.2, and m/z 285.0 →154.0 for tramadol, O-desmethyl tramadol, and diazepam (used as an internal standard, IS), respectively. The collision energy was 20 V for tramadol and O-desmethyl tramadol, and 25 V for diazepam. The standard for tramadol and O-desmethyl tramadol were dissolved in a small amount of DMSO (the concentration was 1 mg/mL) then diluted with acetonitrile (the final concentration was 1 ng/mL–1,000 ng/mL). Diazepam was diluted with methanol gradually to 500 ng/mL).
SD male rats (280 ± 15 g) were purchased from the Shanghai Animal Experimental Center. Before the experiment, the rats were kept in the animal room for two weeks with adequate water and food in order to adapt to the new environment. The room temperature was kept at 20–25 °C and the humidity was kept at 50%–65%. The change period of light and dark conditions was 12 h, which simulates the change of day and night. All animal experiments were approved by the Ethics Committee of Wenzhou Medical University (Approval number: xmsq2022-0621).
Generally speaking, only when at least five or more animals are involved in the experiment can the results be convincing. Thus, twenty SD rats were randomly divided into four groups with five animals per group: group A received a single dose of 20 mg/kg of tramadol; group B received a single dose of 45 mg/kg of crizotinib and 20 mg/kg of tramadol; group C received multiple doses of 0.5% carboxymethylcellulose sodium salt (CMC-Na) for 7 days and a single dose of 20 mg/kg of tramadol; and group D received multiple doses of 45 mg/kg of crizotinib for 7 days and a single dose of 20 mg/kg of tramadol. Prior to the experiment, all rats were fasted for 12 h but allowed free access to water. Once the experiment began, 0.5% CMC-Na and crizotinib were administered to groups C and D for 7 days, respectively, then to groups A and B on the last day of the experiment. After 30 min, all rats were orally administered 20 mg/kg of tramadol. Blood samples were collected from the tail vein at 5 min, 15 min, 30 min, 1 h, 2 h, 3 h, 4 h, 6 h, 8 h, 10 h, 12 h, and 24 h following tramadol administration. […] The samples were centrifuged at 2400 × g for 10 min to obtain serum. Each 50 µL serum was mixed with 150 µL ACN and 20 µL IS (500 ng/mL). After vortexing for 2 min and centrifugation at 16200 × g for 10 min at 4 °C, the supernatant was obtained, then we used UPLC-MS/MS analysis to detect the concentration of tramadol and O-desmethyl tramadol. After the experiment, all the animals were euthanized by 5% isoflurane inhalation anesthesia.
The Michaelis–Menten, IC50, and Lineweaver-Burk plots were generated using GraphPad Prism 6.0 software (GraphPad Software, Boston, MA, USA) with corresponding values for Km, IC50, and Ki (inhibition constant).

[2] = test system: total CYP in rat liver microsomes; assay: Carbon monoxide differential UV spectrophotometric quantification of total CYP; type: in vitro ADME; conditions: RLM from crizotinib-treated rats (45 mg/kg); CO quantitative method
Protocol: Nine rats were randomly divided into three groups (n = 3): group E received 0.5% CMC-Na for 7 days; group F received 45 mg/kg crizotinib for 6 days; and group G received 45 mg/kg of crizotinib for 7 days. […] The blood, liver, kidney, and small intestine were harvested within 10 min and flash-frozen in liquid nitrogen before being transferred to −80 °C for later use.
The CO quantitative method was utilized to measure the total quantity of CYP in rat liver microsomes. The microsomes were transferred to a 1.5 mL centrifuge tube and CO gas was introduced for 60 s. Next, sodium dithionite powder was added and mixed thoroughly. After two minutes, the absorbance of the liquid was measured at 450 nm and 490 nm ultraviolet wavelengths using an ultraviolet and visible spectrophotometer to calculate the total amount of CYP.

## C[C@@H](Oc1cc(-c2cnn(C3CCNCC3)c2)cnc1N)c1c(Cl)ccc(F)c1Cl [crizotinib]
[1]
  effect on pharmacokinetic parameters of O-desmethyl tramadol: no significant differences
[2]
  total amount of CYP: decreased
